The target of one experiment is T1, wildtype K-Ras (Homo sapiens, UniProt P01116).
T1 construct: GST (N); made in house; host or cells: E. coli BL21 (DE3)
Briefly: Nucleotide exchange assay (SOS1, BODIPY FL GDP), wildtype K-Ras. Format: biochemical. To be noted: compound marked *: general methodology of example 7 (nucleotide exchange); read-out: IC50 against wildtype Kras. How it is done:
(§1) This assay can be also used to assess a selective inhibition of a mutant Ras protein relative to a wildtype, or relative to a different mutant Ras protein. For example, 250 nM or 500 nM GDP-loaded K-Ras proteins (e.g., wildtype or a mutant thereof including those mentioned in Example 6), each was incubated with different concentrations of compounds (for example ˜60 μM, ˜20 μM, ˜6.7 μM, ˜2.2 μM, ˜0.7 µM, ˜0.2 μM subject compound). A control reaction without subject compound was also included. SOS1 (catalytic domain) protein was added to the K-Ras protein solution. The nucleotide exchange reaction was initiated by adding fluorescent labelled GDP (Guanosine 5′-Diphosphate, BODIPY™ FL 2′-(or-3′)—O—(N-(2-Aminoethyl) Urethane) to a final concentration of 0.36 μM. Fluorescence was measured every 30 s for 70 minutes at 490 nm/515 nm (excitation/emission) in a M1000Pro plate reader (Tecan). Data is exported and analyzed to calculate an IC50 using GraphPad Prism (GraphPad Software). Sample(s) was tested with or without a subject compound disclosed herein including compound(s) exemplified in Table 1 to assess compound's ability to inhibit K-Ras signaling or its IC50 against a given Ras protein (e.g., a given mutant K-Ras) of interest.

The next experiment concerns the target T2, K-Ras G12D mutant (Homo sapiens, UniProt P01116, G12D).
T2 construct: GST (N); made in house; host or cells: E. coli BL21 (DE3)
Briefly: Nucleotide exchange assay (SOS1, BODIPY FL GDP), mutant K-Ras. Format: biochemical. The settings on record: compound marked *: general methodology of example 7 (nucleotide exchange); read-out: IC50 against mutant Kras. How it is done: as §1

In patent US20240254129A1, “HETEROCYCLIC COMPOUNDS AND USES THEREOF” (Kumquat Biosciences Inc., priority 2021, published 2024) one finds IC50 data, which are given here for one compound.

T1 sequence (P01116 1-188 isoform P01116-2): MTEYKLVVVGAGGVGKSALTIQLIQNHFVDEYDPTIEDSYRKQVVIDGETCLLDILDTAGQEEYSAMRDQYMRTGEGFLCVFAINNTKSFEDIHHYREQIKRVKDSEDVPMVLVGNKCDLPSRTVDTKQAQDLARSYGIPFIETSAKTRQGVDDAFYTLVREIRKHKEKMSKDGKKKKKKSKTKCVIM
T2 sequence (P01116 1-188 isoform P01116-2 G12D): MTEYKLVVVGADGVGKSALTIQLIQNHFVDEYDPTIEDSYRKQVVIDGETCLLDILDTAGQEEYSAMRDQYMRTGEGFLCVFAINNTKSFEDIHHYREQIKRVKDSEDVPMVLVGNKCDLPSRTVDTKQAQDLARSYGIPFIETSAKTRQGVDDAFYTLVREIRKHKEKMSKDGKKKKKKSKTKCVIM

In the case of `CN1CCC[C@H]1COc1nc(N2CCCNCC2)c2cc(Cl)c(-c3cccc4sc(N)nc34)c(F)c2n1` [Compound 101, 4-(6-chloro-4-(1,4-diazepan-1-yl)-8-fluoro-2-(((S)-1-methylpyrrolidin-2-yl)methoxy)quinazolin-7-yl)benzo[d]thiazol-2-amine], the IC50 – broadly, the midpoint of a concentration-inhibition curve – at wildtype K-Ras is more than 500 nM; at K-Ras G12D mutant, less than 500 nM.
